In US20220348572A1, “BRIDGED HETEROCYCLYL-SUBSTITUTED PYRIMIDINE COMPOUND, PREPARATION METHOD THEREFOR, AND PHARMACEUTICAL USE THEREOF” (The National Institutes of Pharmaceutical R&D Co., Ltd., priority 2019, published 2022):

Target: T1, JAK1 kinase (Homo sapiens, UniProt P23458)
T1 construct: purchased Invitrogen PV4744
Assay: In vitro inhibitory activity on JAK1 kinase (ADP-Glo Kinase Assay)
Assay type: biochemical
Conditions: JAK1 kinase 4 nM, 1 mM ATP
Protocol: Test Example 1: Determination of In Vitro Inhibitory Activity of the Compounds of the Present Invention on JAK1 Kinase Experimental materials: JAK1 kinase (Invitrogen, PV4744), ATP (Promega, V915B), ADP-Glo Kinase Assay (Promega, V9101), IRS1 (Signalchem, 140-58-1000). Sample preparation: The compounds of the present invention and the control product were dissolved in DMSO solvent respectively to formulate into 10 mM initial liquid. The maximum concentration of the compound was 10 μM, 3-fold dilution, 10 concentration gradients, and duplicate wells for each concentration gradient. Experimental processs: 0.1 μL of the compound to be tested was transferred into a 384 reaction plate (PE, 6007290) via Echo and centrifuged at 1000 rpm/min for 1 min. 5 μL JAK1 kinase (final concentration of 4 nM) was transferred into the 384 reaction plate, which was then centrifuged at 1000 rpm/min for 1 min, and incubated at 25° C. for 15 min. 5 μL substrate mixture (1 mM ATP, IRS1 0.05 mg/ml, kinase buffer solution) was transferred into the 384 reaction plate, which was then centrifuged at 1000 rpm/min for 1 min, and incubated at 25° C. for 60 min. 10 μL ADP-Glo was transferred into the 384 reaction plate, which was then centrifuged at 1000 rpm/min for 1 min, and incubated at 25° C. for 40 min. 20 μL test solution was transferred into the 384 reaction plate, which was then centrifuged at 1000 rpm/min for 1 min and incubated at 25° C. for 40 min. RLU (Relative luminescence unit) signal was read by using an Envision multifunctional plate reader. The signal intensity was used to characterize the degree of the kinase activity. […] IC50 value of 0-100 nM is shown as A, IC50 value of 100-300 nM is shown as B, IC50 value of 300-1000 nM is shown as C, and IC50 value which is greater than 1000 nM is shown as D. NT means not tested.

T1 sequence (P23458 866-1154 limits assumed): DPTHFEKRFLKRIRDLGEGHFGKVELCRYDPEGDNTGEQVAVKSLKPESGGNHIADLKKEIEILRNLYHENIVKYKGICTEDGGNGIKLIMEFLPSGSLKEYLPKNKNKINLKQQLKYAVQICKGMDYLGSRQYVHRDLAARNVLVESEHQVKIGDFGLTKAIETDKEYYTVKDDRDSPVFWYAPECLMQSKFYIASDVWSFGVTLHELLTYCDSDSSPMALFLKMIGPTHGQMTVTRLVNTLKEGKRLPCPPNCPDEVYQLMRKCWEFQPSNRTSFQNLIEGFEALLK

SMILES	IC50
Cc1cnc(Nc2cnn(CC(C)(C)O)c2)nc1C1=CC2CCC(C1)N2C(=O)NCC(F)(F)F (stereo not drawn) [Compound 29, 3-(2-((1-(2-hydroxy-2-methylpropyl)-1H-pyrazol-4-yl)amino)-5-methylpyrimidin-4-yl)-N-(2,2,2-trifluoroethyl)-8-azabicyclo[3.2.1]oct-2-ene-8-carboxamide]	< 100 nM
Cn1cc(Nc2nccc(C3=CC4CCC(C3)N4C(=O)C3(C)COC3)n2)cn1 (stereo not drawn) [Compound 13, (3-(2-((1-methyl-1H-pyrazol-4-yl)amino)pyrimidin-4-yl)-8-azabicyclo[3.2.1]oct-2-en-8-yl)(3-methyloxetan-3-yl)methanone]	> 1000 nM
Cn1cc(Nc2ncc(F)c(C3=C[C@H]4CC[C@@H](C3)N4C(=O)NCC(F)(F)F)n2)cn1 [Compound 12-b, (1R,5S)-3-(5-fluoro-2-((1-methyl-1H-pyrazol-4-yl)amino)pyrimidin-4-yl)-N-(2,2,2-trifluoroethyl)-8-azabicyclo[3.2.1]oct-2-ene-8-carboxamide]	< 100 nM
Cc1cnc(Nc2cnn(CC(C)(C)O)c2)nc1C1=C[C@@H]2CC[C@H](C1)N2C(=O)NCC(F)(F)F (single isomer, unassigned) [Compound 29-a]	< 100 nM
Cc1cnc(Nc2cn(C)nc2C)nc1C1=CC2CCC(C1)N2C(=O)NCC(F)(F)F (stereo not drawn) [Compound 26, 3-(2-((1,3-dimethyl-1H-pyrazol-4-yl)amino)-5-methylpyrimidin-4-yl)-N-(2,2,2-trifluoroethyl)-8-azabicyclo[3.2.1]oct-2-ene-8-carboxamide]	< 100 nM
Cc1cnc(Nc2cnn(C)c2)nc1C1=C[C@H]2CC[C@@H](C1)N2C(=O)[C@@H]1CC1(F)F [Compound 22-b, ((S)-2,2-difluorocyclopropyl)((1R,5S)-3-(5-methyl-2-((1-methyl-1H-pyrazol-4-yl)amino)pyrimidin-4-yl)-8-azabicyclo[3.2.1]oct-2-en-8-yl)methanone]	< 100 nM
Cc1cnc(Nc2cnn(C)c2Cl)nc1C1=CC2CCC(C1)N2C(=O)NCC(F)(F)F (stereo not drawn) [Compound 32, 3-(2-((5-chloro-1-methyl-1H-pyrazol-4-yl)amino)-5-methylpyrimidin-4-yl)-N-(2,2,2-trifluoroethyl)-8-azabicyclo[3.2.1]oct-2-ene-8-carboxamide]	100 to 300 nM
Cc1cnc(Nc2cnn(C)c2C)nc1C1=CC2CCC(C1)N2C(=O)NCC(F)(F)F (stereo not drawn) [Compound 27, 3-(2-((1,5-dimethyl-1H-pyrazol-4-yl)amino)-5-methylpyrimidin-4-yl)-N-(2,2,2-trifluoroethyl)-8-azabicyclo[3.2.1]oct-2-ene-8-carboxamide]	300 to 1000 nM
Cn1cc(Nc2ncc(Cl)c(C3=C[C@@H]4CC[C@H](C3)N4C(=O)[C@@H]3CC3(F)F)n2)cn1 [Compound 23-a, ((1S,5R)-3-(5-chloro-2-((1-methyl-1H-pyrazol-4-yl)amino)pyrimidin-4-yl)-8-azabicyclo[3.2.1]oct-2-en-8-yl)((S)-2,2-difluorocyclopropyl)methanone]	< 100 nM
Cn1cc(Nc2nccc(C3=CC4CCC(C3)N4C(=O)N3CCC(C(F)(F)F)C3)n2)cn1 (stereo not drawn) [Compound 9, (3-(2-((1-methyl-1H-pyrazol-4-yl)amino)pyrimidin-4-yl)-8-azabicyclo[3.2.1]oct-2-en-8-yl)(3-(trifluoromethyl)pyrrolidin-1-yl)methanone]	> 1000 nM
Cn1cc(Nc2ncc(Cl)c(C3=CC4CCC(C3)N4C(=O)[C@@H]3CC3(F)F)n2)cn1 (stereo partly drawn) [Compound 23, (3-(5-chloro-2-((1-methyl-1H-pyrazol-4-yl)amino)pyrimidin-4-yl)-8-azabicyclo[3.2.1]oct-2-en-8-yl)((S)-2,2-difluorocyclopropyl)methanone]	< 100 nM
Cn1cc(Nc2nccc(C3=CC4CCC(C3)N4C(=O)N3CC(C#N)C3)n2)cn1 (stereo not drawn) [Compound 10, 1-(3-(2-((1-methyl-1H-pyrazol-4-yl)amino)pyrimidin-4-yl)-8-azabicyclo[3.2.1]oct-2-ene-8-carbonyl)azetidine-3-nitrile]	> 1000 nM
Cc1cnc(Nc2cnn(C)c2)nc1C1=C[C@@H]2CC[C@H](C1)N2C(=O)NCC(F)(F)F [Compound 19-a, (1S,5R)-3-(5-methyl-2-((1-methyl-1H-pyrazol-4-yl)amino)pyrimidin-4-yl)-N-(2,2,2-trifluoroethyl)-8-azabicyclo[3.2.1]oct-2-ene-8-carboxamide]	< 100 nM

The next lines start with the values.

IC50	SMILES
> 1000 nM	Cn1cc(Nc2ncc(S(C)(=O)=O)c(C3=CC4CCC(C3)N4C(=O)NCC(F)(F)F)n2)cn1 (stereo not drawn) [Compound 34, 3-(2-((1-methyl-1H-pyrazol-4-yl)amino)-5-(methylsulfonyl)pyrimidin-4-yl)-N-(2,2,2-trifluoroethyl)-8-azabicyclo[3.2.1]oct-2-ene-8-carboxamide]
> 1000 nM	Cn1cc(Nc2nccc(C3=CC4CCC(C3)N4C(=O)C3CC(CO)C3)n2)cn1 (stereo not drawn) [Compound 81, (3-(hydroxymethyl)cyclobutyl)(3-(2-((1-methyl-1H-pyrazol-4-yl)amino)pyrimidin-4-yl)-8-azabicyclo[3.2.1]oct-2-en-8-yl)methanone]
300 to 1000 nM	Cn1cc(Nc2nccc(C3=CC4CCC(C3)N4C(=O)NCCC(F)(F)F)n2)cn1 (stereo not drawn) [Compound 57, 3-(2-((1-methyl-1H-pyrazol-4-yl)amino)pyrimidin-4-yl)-N-(3,3,3-trifluoropropyl)-8-azabicyclo[3.2.1]oct-2-ene-8-carboxamide]
100 to 300 nM	CC(C)(O)Cn1cc(Nc2nccc(C3=CC4CCC(C3)N4C(=O)[C@@H]3CC3(F)F)n2)cn1 (stereo partly drawn) [Compound 41, ((S)-2,2-Difluorocyclopropyl)(3-(2-((1-(2-hydroxy-2-methylpropyl)-1H-pyrazol-4-yl)amino)pyrimidin-4-yl)-8-azabicyclo[3.2.1]oct-2-en-8-yl)methanone]
300 to 1000 nM	Cn1cc(Nc2nccc(C3=CC4CCC(C3)N4C(=O)COCC(F)(F)F)n2)cn1 (stereo not drawn) [Compound 69, 1-(3-(2-((1-methyl-1H-pyrazol-4-yl)amino)pyrimidin-4-yl)-8-azabicyclo[3.2.1]oct-2-en-8-yl)-2-(2,2,2-trifluoroethoxy)-1-one]
< 100 nM	Cn1cc(Nc2nccc(C3=CC4CCC(C3)N4C(=O)NCC(F)F)n2)cn1 (stereo not drawn) [Compound 44, N-(2,2-difluoroethyl)-3-(2-((1-methyl-1H-pyrazol-4-yl)amino)pyrimidin-4-yl)-8-azabicyclo[3.2.1]oct-2-ene-8-carboxamide]
< 100 nM	Cn1cc(Nc2nccc(C3=CC4CCC(C3)N4C(=O)NC3(C(F)(F)F)CC3)n2)cn1 (stereo not drawn) [Compound 33, 3-(2-((1-methyl-1H-pyrazol-4-yl)amino)pyrimidin-4-yl)-N-(1-(trifluoromethyl)cyclopropyl)-8-azabicyclo[3.2.1]oct-2-ene-8-carboxamide]
300 to 1000 nM	CC(C(=O)N1C2C=C(c3ccnc(Nc4cnn(C)c4)n3)CC1CC2)C(F)(F)F (stereo not drawn) [Compound 67, 3,3,3-trifluoro-2-methyl-1-(3-(2-((1-methyl-1H-pyrazol-4-yl)amino)pyrimidin-4-yl)-8-azabicyclo[3.2.1]oct-2-en-8-yl)-1-acetone]
> 1000 nM	COC1CC(C(=O)N2C3C=C(c4ccnc(Nc5cnn(C)c5)n4)CC2CC3)C1 (stereo not drawn) [Compound 80, (3-methoxycyclobutyl)(3-(2-((1-methyl-1H-pyrazol-4-yl)amino)pyrimidin-4-yl)-8-azabicyclo[3.2.1]oct-2-en-8-yl)methanone]
> 1000 nM	Cn1cc(Nc2nccc(C3=CC4CCC(C3)N4C(=O)C(=O)NCC#N)n2)cn1 (stereo not drawn) [Compound 83, N-(cyanomethyl)-2-(3-(2-((1-methyl-1H-pyrazol-4-yl)amino)pyrimidin-4-yl)-8-azabicyclo[3.2.1]oct-2-en-8-yl)-2-oxoacetamide]
100 to 300 nM	O=C([C@@H]1CC1(F)F)N1C2C=C(c3ccnc(Nc4cnn(CCO)c4)n3)CC1CC2 (stereo partly drawn) [Compound 40, ((S)-2,2-difluorocyclopropyl)(3-(2-((1-(2-hydroxyethyl)-1H-pyrazol-4-yl)amino)pyrimidin-4-yl)-8-azabicyclo[3.2.1]oct-2-en-8-yl)methanone]
< 100 nM	Cn1cc(Nc2nccc(C3=CC4CCC(C3)N4C(=O)C3CC3C(F)(F)F)n2)cn1 (stereo not drawn) [Compound 49, (3-(2-((1-methyl-1H-pyrazol-4-yl)amino)pyrimidin-4-yl)-8-azabicyclo[3.2.1]oct-2-en-8-yl)(2-(trifluoromethyl)cyclopropyl)methanone]
300 to 1000 nM	Cn1cc(Nc2nccc(C3=CC4CCC(C3)N4C(=O)C3(C#N)CC3)n2)cn1 (stereo not drawn) [Compound 63, 1-(3-(2-((1-methyl-1H-pyrazol-4-yl)amino)pyrimidin-4-yl)-8-azabicyclo[3.2.1]oct-2-ene-8-formyl)cyclopropane-1-carbonitrile]
100 to 300 nM	CC(C)n1cc(Nc2nccc(C3=CC4CCC(C3)N4C(=O)[C@@H]3CC3(F)F)n2)cn1 (stereo partly drawn) [Compound 46, ((S)-2,2-Difluorocyclopropyl)(3-(2-((1-isopropyl-1H-pyrazol-4-yl)amino)pyrimidin-4-yl)-8-azabicyclo[3.2.1]oct-2-en-8-yl)methanone]
